Entries after “also recorded” stand apart in the source; their conditions may differ.
How the values were obtained:
p53 [1] = test: Immunohistochemical analysis of nuclear p53 staining in epidermal keratinocytes; assay type: in vivo, mice; conditions: 24 hours after the last UVB exposure; 20 mg/kg s.c. pre-treatment
Text: Animals and treatment for Example 2. Female SKH-1 hairless mice (6 weeks old) were purchased from Charles River Laboratories (Wilmington, Mass.). After their arrival, animals were housed at […] vivarium under specific pathogen-free conditions according to the National Institutes of Health Animal Care Guidelines under an Institutional protocol reviewed and approved by the Institutional Animal Care and Use Committee (IACUC). Animals were allowed to acclimatize for a week prior to the experiment. Animals were fed Purina chow diet and water ad libitum. Throughout the experimental protocol, the mice were maintained at standard conditions; temperature 24±2° C., relative humidity 50±10%, and 12 hour room light/12 hour dark cycle. Mice were divided into four groups. […] The remaining animals were divided into UV exposure alone (Group 2), UV+saline treatment (Group 3) and UV+bucillamine treatment (Group 4). Mice in groups 2-4 were exposed to two doses of 230 mJ/cm^2 UVB, 24 hours apart. Two hours prior to each UVB exposure, mice in groups 3 and 4 were treated with normal saline (Group 3) or bucillamine at a concentration of 20 mg/kg of body weight (Group 4) subcutaneously. […] All samples were coded and evaluated by at least two investigators in a blinded manner. […]

[2] = tested on: UV-exposed skin of SKH-1 hairless mice; test: Histology of UVB-exposed dorsal skin after bucillamine pre-treatment; assay type: in vivo
Text: Animals and treatment for Example 2. Female SKH-1 hairless mice (6 weeks old) were purchased from Charles River Laboratories (Wilmington, Mass.). After their arrival, animals were housed at UCDHSC vivarium under specific pathogen-free conditions according to the National Institutes of Health Animal Care Guidelines under an Institutional protocol reviewed and approved by the Institutional Animal Care and Use Committee (IACUC). Animals were allowed to acclimatize for a week prior to the experiment. Animals were fed Purina chow diet and water ad libitum. Throughout the experimental protocol, the mice were maintained at standard conditions; temperature 24±2° C., relative humidity 50±10%, and 12 hour room light/12 hour dark cycle. Mice were divided into four groups. […] The remaining animals were divided into UV exposure alone (Group 2), UV+saline treatment (Group 3) and UV+bucillamine treatment (Group 4). Mice in groups 2-4 were exposed to two doses of 230 mJ/cm^2 UVB, 24 hours apart. Two hours prior to each UVB exposure, mice in groups 3 and 4 were treated with normal saline (Group 3) or bucillamine at a concentration of 20 mg/kg of body weight (Group 4) subcutaneously. Animals were sacrificed after the last UVB exposure at various time points, and the dorsal skin was surgically removed and used for further analysis.
UVB Source. We employed four FS-40-T-12-UVB sunlamps with UVB spectra 305 Dosimeter (Daavlin, Bryan, Ohio), which emitted about 80% radiation in the range of 280-340 nm with a peak emission at 314 nm as monitored with a SEL 240 photodetector, 103 filter and 1008 diffuser attached to an IL1400A NIST Traceable Radiometer/Photometer from International Light (Newburyport, Mass.). The UVB irradiation doses were also calibrated using an IL1400A radiometer.
Histopathology. Skin samples were fixed in 10% formalin and embedded in paraffin. Vertical sections (4 μm thickness) were cut and mounted on a glass slide, and stained with hematoxylin and eosin followed by microscopic evaluation of the slides. SKH-1 hairless mice were unexposed or irradiated with UVB (230 mJ/cm^2) twice, 24 hours apart. Mice irradiated with UVB were untreated or pre-treated with bucillamine or saline. Skin samples were collected at 6 hours and 24 hours after the last UVB exposure, and processed for histopathological analysis.

p53 [3] = test: UVB-mediated total p53 induction in skin lysates (immunoblot); assay type: in vivo, mice; conditions: 20 mg/kg s.c. pre-treatment
Text: (§1) Animals and treatment for Example 2. Female SKH-1 hairless mice (6 weeks old) were purchased from Charles River Laboratories (Wilmington, Mass.). After their arrival, animals were housed at UCDHSC vivarium under specific pathogen-free conditions according to the National Institutes of Health Animal Care Guidelines under an Institutional protocol reviewed and approved by the Institutional Animal Care and Use Committee (IACUC). Animals were allowed to acclimatize for a week prior to the experiment. Animals were fed Purina chow diet and water ad libitum. Throughout the experimental protocol, the mice were maintained at standard conditions; temperature 24±2° C., relative humidity 50±10%, and 12 hour room light/12 hour dark cycle. Mice were divided into four groups. […] The remaining animals were divided into UV exposure alone (Group 2), UV+saline treatment (Group 3) and UV+bucillamine treatment (Group 4). Mice in groups 2-4 were exposed to two doses of 230 mJ/cm^2 UVB, 24 hours apart. Two hours prior to each UVB exposure, mice in groups 3 and 4 were treated with normal saline (Group 3) or bucillamine at a concentration of 20 mg/kg of body weight (Group 4) subcutaneously. […]
(§2) SDS-PAGE and immunoblot analysis. Proteins were analyzed by SDS-PAGE (12% gels) followed by transfer to a polyvinylidene difluoride membrane (0.4 μM) in 25 mM Tris, 192 mM glycine, and 20% methanol at 110 V for 1 hour. […]

SKH-1 mice = test: Preliminary experiment assessing adverse effects of bucillamine alone in SKH-1 mice; assay type: in vivo; conditions: 20 mg/kg s.c., two doses 24 hours apart, no UVB
Experimental: In order to assess any adverse effects of bucillamine and UV exposure separately, a preliminary experiment was carried out in which SKH-1 mice were either treated with bucillamine (20 mg/kg s.c.) or UVB (230 mJ/cm^2) irradiation. Bucillamine can, for example, be administered intravenously, subcutaneously, intramuscularly or orally. Subcutaneous administration was used because it is a relatively easy route and the least likely to injure the animal during administration. The selection of bucillamine dose and UVB dose was based on previously published studies (13, 19, 21, 22). High dose of UVB (230 mJ/cm^2) was selected to investigate bucillamine effect on acute photodamage. Each group of animals received two doses of bucillamine or UVB, 24 hours apart. […] UVB exposure caused edema, erythema and thickening of the exposed skin.

PUMA = test: UVB-induced activation of PUMA, downstream target of p53, in skin; assay type: in vivo, mice; conditions: 12 and 24 hours after the last UVB exposure; 20 mg/kg s.c. pre-treatment
Text: as §1, §2

p53 (Ser15, Ser20) = test: UVB-induced phosphorylation of p53 at Ser15 and Ser20 in skin (immunoblot); assay type: in vivo, mice; conditions: 20 mg/kg s.c. pre-treatment
Text: as §1, §2

[4] = tested on: ubiquitin proteasomal pathway (UPP) in 8B20 mouse melanoma cells; test: Ubiquitin immunoblot controls for UPP inhibition in 8B20 cells; assay type: cell-based; conditions: 50 μM, negative control
Experimental: As a positive control of UPP inhibition, we used 8B20 mouse melanoma cells treated with UPP inhibitors MG132 (10 μM) and Lactacystin (10 μM), and as a negative control we used 8B20 cells treated with etoposide (50 μM), a DNA damaging agent.
SDS-PAGE and immunoblot analysis. Proteins were analyzed by SDS-PAGE (12% gels) followed by transfer to a polyvinylidene difluoride membrane (0.4 μM) in 25 mM Tris, 192 mM glycine, and 20% methanol at 110 V for 1 hour. Membranes were blocked overnight in 10 mM Tris-HCl, pH 8.0, 125 mM NaCl, and 0.2% (v/v) Tween 20 containing 5% (w/v) nonfat dry milk (TBST-M5). Immunoblot analysis of the total protein bands were visualized using enhanced chemiluminescence as described by the manufacturer (Pierce Biotechnology, Inc., Rockford, Ill.). Immunoblots were subsequently stripped of antibodies by incubating for 15-20 minutes at 37° C. with Restore Western Stripping Buffer (Pierce Biotechnology, Inc., Rockford, Ill.) and re-probed with β-actin antibody to confirm protein loading. Densitometric analysis of the membranes was performed using GelDoc 200 (Bio-Rad Laboratories, Hercules, Calif.).

[5] = 12 and 24 hours after the last UVB exposure
[6] = 6 hours after the last UVB exposure

Row | SMILES | nuclear p53 staining in epidermal keratinocytes (p53 [1]) | UVB-induced erythema of dorsal skin ([2]; 20 mg/kg s.c. 2 h before each of two 230 mJ/cm^2 UVB exposures) | UVB-induced inflammation ([2]; 12 and 24 hours after the last UVB exposure, pre-treatment) | epidermal necrosis (histology) ([2]; 6 hours after the last UVB exposure, 20 mg/kg s.c. pre-treatment) | UV-effects on inflammation (dermal edema, leukocyte infiltration, dilatation of blood vessels) ([2]; 24 hours after the last UVB exposure, 20 mg/kg s.c. pre-treatment) | p53 level (p53 [3]; [5]) | induction of total p53 (p53 [3]; [6]) | adverse effects (SKH-1 mice) | activation of PUMA (PUMA) | phosphorylation of p53 at Ser15 and Ser20 (p53 (Ser15, Ser20); [5]) | phosphorylation of p53 at Ser15 and Ser20 (p53 (Ser15, Ser20); [6]) | ubiquitin reactive high molecular weight bands (polyubiquitinated species) [4]
1 | CC(C)(S)C(=O)N[C@@H](CS)C(=O)O [bucillamine, N-(2-mercapto-2-methylpropionyl)-L-cysteine] | diminished this effect | attenuated the erythema | attenuated the inflammation | epidermal necrosis was less prominent | attenuated the UV-effects on inflammation | further decreased | attenuated this effect | no adverse effects | attenuated the activation of PUMA | further diminished the phosphorylation; also recorded: quick decrease | attenuated this effect | 
2 | COc1cc([C@@H]2c3cc4c(cc3[C@@H](O[C@@H]3O[C@@H]5CO[C@@H](C)O[C@H]5[C@H](O)[C@H]3O)[C@H]3COC(=O)[C@H]23)OCO4)cc(OC)c1O [etoposide] |  |  |  |  |  |  |  |  |  |  |  | no polyubiquitinated species
